Usually LD50 stands for the dose expected to kill half of the subjects tested. Higher therefore signals a less toxic substance.

The test system of data set [1] is Acute Liver Damage associated with Centrilobular Necrosis (carbon tetrachloride). Briefly: Protective effect on acute liver damage associated with centrilobular necrosis (carbon tetrachloride model). The data set is classed as in vivo, mice (four-week-old male, dd strain). Conditions: 250 mg/kg oral 6 h before CCl4, average of 5 to 6 mice; for p-GPT (plasma glutamic-pyruvic transaminase activity): 24 h after CCl4, values over 1,000 regarded as 1,000; for Liver Damage Index: 0 normal, 2 slightly recognized, 4 clearly observable damage, 6 heavy damage. An excerpt: Carbon tetrachloride (CCl4) administration induces centrilobular necrosis of the liver associated with loss of diphosphopyridine nucleotide, hepatic glycogen, coenzyme A and increase in neutral fat. Release of several enzymes from the hepatocytes, and increases of enzyme activities in the plasma are recognized as the result of the damage of the liver. A suitable means for evaluating the degree of damage induced by CCl4 or the degree of protection afforded by drugs is to study the plasma glutamic-pyruvic transaminase (p-GPT) activity.
Method: The test compounds were dissolved or suspended in olive oil and administered orally at the dose of 250 mg/kg to the mice (Four-week-old male mice-dd strain). After 6 hours, CCl4 was administered orally (0.05 ml/kg as olive oil solution). Animals were killed 24 hours after CCl4 administration, and the liver was grossly observed. The plasma was obtained by centrifugation. Activities of p-GPT were determined by the method of Reitman and Frankel and expressed in Karmen units.
Score for liver damage was as follows: […]
4 Clearly observable damage
Each figure indicates average of 5 to 6 mice. Values of p-GPT over 1,000 Karmen unit regarded as 1,000 for calculation of average for convenience.

The test system of the next data set is fatty liver (ethionine). Put plainly: Effect on fatty liver (ethionine model). Conditions: diet plus 0.2% ethionine and 0.2% compound, 5 days. The data set is classed as in vivo, male mice (4 week-old, dd-strain). An excerpt:
There are known many factors inducing fatty liver. But, the fatty liver is grouped into a couple of patterns from the mechanism of lipid accumulation or metabolism of lipoprotein in the liver. Ethionine is a typical compound inducing fatty liver. It inhibits RNA and protein syntheses and destructs polysome of the liver cell. Fatty liver is induced by the inhibition of protein synthesis and the disturbance of lipoprotein secretion.
Usually, fatty liver is closely related to the accumulation of triglyceride in the liver. In the present example, the degree of fatty liver and protective or therapeutic effect against the fatty liver was evaluted by measurement of triglyceride content in the liver.
The animals used in the test were 4 week-old male mice (dd-strain).
The mice were submitted for 5 days to a normal diet (control), to the normal diet plus 0.2% ethionine (positive control), to the normal diet plus 0.2% ethionine and 0.2% of the compound of this invention, or to the normal diet plus 0.2% ethionine and 0.2% methionine which was the referential diet. At the end of the period of 5 days, content of triglyceride in the liver was studied colorimetrically by chromotropic acid method and the result was represented as triolein content (mg/g-liver).

The nature of data set [2]: Effect on concentration of ethyl alcohol in the blood. Conditions: 250 mg/kg oral 6 h before ethyl alcohol 1,000 mg/kg. In kind it is in vivo, mice. Here is the method:
The test compounds are dissolved or suspended in olive oil and administered orally at the dose of 250 mg/kg to the mice. After 6 hours, 1,000 mg/kg of ethyl alcohol was given orally. Blood was taken in a capillary from caudal vein at the time indicated in the results. The plasma was obtained by centrifugation. The concentration of ethyl alcohol in the plasma was measured by FID type gas liquid chromatography. Five mice were used for each group.

Data set [3] concerns fatty liver (carbon tetrachloride). Put plainly: Therapeutic effect on fatty liver (carbon tetrachloride model). In kind it is in vivo, male rat (35 week-old, SD strain). Conditions: for Degree of fatty liver (histopathological examination): 10 days, one symbol per animal. The method, then:
Carbon tetrachloride also induces fatty liver, but the picture of disease differs from the case of ethionine-induced fatty liver. Carbon tetrachloride is generally considered to damage microsome and thereby to inhibit protein synthesis and induce fatty liver.
Carbon tetrachloride was subscutaneously administered to 35 week-old male rat (SD strain) for 4 days at the dose of 1 ml/kg. The treated animals were left for 3 days after the last administration to maximize the manifestation of fatty liver.
Administration of the compounds of this invention was commenced on the fourth day after the administration of carbon tetrachloride was completed. It was orally given everyday for 10 days at the dose of 50 or 250 mg/kg. On the 11th day, the animals were sacrificed. The therapeutic effect was evaluated by determining the content of lipid in the liver (triglyceride and total lipid) and examining the histopathological changes. Triglyceride and total lipid were determined colorimetrically by chromotropic acid method and Bragdon's oxidation method, respectively.
Indices for the histopathological change is as follows.

A short description of the next data set: in vivo. Conditions: mouse, po.
The test system of data set [4] is acute liver damage associated with discrete lobular necrosis (D-galactosamine). Put plainly: Protective effect on acute hepatitis with mesenchymal reaction and discrete lobular necrosis (D-galactosamine model). The data set is classed as in vivo, male rat (SD strain). The note with it: 100 mg/kg oral 6 h before D-galactosamine. The method, then:
D-Galactosamine is a compound which induces a discrete lobular necrosis associated with mesenchymal reaction similar to the change observed in human viral hepatitis, so that it is frequently used in producing a model for viral hepatitis.
The compound of this invention or anethol trithion was administered orally to the male rat (SD strain) at the dose of 100 mg/kg. Six hours after it, D-galacetosamine was intraperitoneally administered at the dose of 600 mg/kg. Four hours after it, an additional 300 mg/kg was administered intraperitoneally. Eight hours after it, the animals were sacrificed to collect the blood samples. P-GPT activity and triglyceride in the liver were measured to evaluate the effect of the compound of this invention.

Where [5] appears, read: 250 mg/kg oral everyday for 10 days.
Setting [6] is: 50 mg/kg oral everyday for 10 days.

Molecules are shown by their SMILES.

`CCOC(=O)C(C(=O)OCC)=C1SCC[S+]1[O-]` (stereo not shown) [Compound 30]: in data set [1], the “p-GPT (plasma glutamic-pyruvic transaminase activity)” value stood at 156 Karmen units and the “Liver Damage Index” value was 0.8. The “Triglyceride (content in the liver, as triolein)” value in the data set on fatty liver (ethionine) was 12.6 ± 2.3 mg/g.

As for `CCOC(=O)C(C(=O)SCC)=C1SCCS1` [Compound 26], the “p-GPT (plasma glutamic-pyruvic transaminase activity)” value in data set [1] is 62 Karmen units. In data set [1], the “Liver Damage Index” value came to 0.6. Also, the “Concentration of Ethyl alcohol in Plasma” value in data set [2] (0 min) is on record as 10±3 ppm; in data set [2] (5 min), 690±102 ppm; in data set [2] (15 min), 694±86 ppm; in data set [2] (30 min), 432±96 ppm; in data set [2] (60 min), 12±8 ppm.

In data set [3] (setting [5]), `CSCC[C@H](N)C(=O)O` [Methionine, methionine, reference compound] gave a Total lipid of 168.6 ± 21.6 mg/g-liver and a Triglyceride of 58.2 ± 9.6 mg/g-liver. Moreover, the “Degree of fatty liver (histopathological examination)” value in data set [3] (250 mg/kg oral) was “+ ± and ++ ++ ++ ±”. In addition, in data set [3] (carbon tetrachloride, in words), the “therapeutic effect on fatty liver” value is on record as “hardly exhibited a therapeutic effect”. Moreover, the “Triglyceride (content in the liver, as triolein)” value with fatty liver (ethionine) is reported as 13.2 ± 2.1 mg/g.

In data set [3] (setting [6]), `CC(C)COC(=O)C(C(=O)OCC(C)C)=C1SCC[S+]1[O-]` (stereo not shown) [Compound 32] had a Total lipid of 112.4 ± 12.3 mg/g-liver and a Triglyceride of 48.3 ± 7.6 mg/g-liver. Also, in data set [3] (setting [5]), the Total lipid stood at 77.2 ± 8.7 mg/g-liver and the Triglyceride came out at 26.3 ± 4.2 mg/g-liver. For the same compound, in data set [1], the “p-GPT (plasma glutamic-pyruvic transaminase activity)” value stood at 180 Karmen units and the “Liver Damage Index” value is on record as 1.0.

For the compound `CC(C)OC(=O)C(C(=O)OC(C)C)=C1SCC[S+]1[O-]` (stereo not shown) [Compound 31, 2-(Diisopropoxycarbonyl)methyliden-1,3-dithiolan-1-oxide], the LD50 in “in vivo” is > 6000 mg/kg. Besides, the “p-GPT (plasma glutamic-pyruvic transaminase activity)” value in data set [1] amounted to 121 Karmen units. For the same compound, the “Liver Damage Index” value in data set [1] was 0.8. In addition, the “Concentration of Ethyl alcohol in Plasma” value in data set [2] (0 min) worked out at 12±8 ppm; in data set [2] (5 min) it was 720±145 ppm; in data set [2] (15 min), 583±122 ppm; in data set [2] (30 min) it was 343±13 ppm; in data set [2] (60 min) it was 5±2 ppm.

For `CCOC(=O)C(C(=O)OC(C)CC)=C1SCCS1` (stereo not shown) [Compound 22], in data set [1], the “p-GPT (plasma glutamic-pyruvic transaminase activity)” value turned out to be 67 Karmen units and the “Liver Damage Index” value is given as 0.4. For the same compound, the “Triglyceride (content in the liver, as triolein)” value in the data set with fatty liver (ethionine) amounted to 11.3 ± 0.96 mg/g.

In the case of `CC(C)SC(=O)C(C(=O)SC(C)C)=C1SCCS1` [Compound 13], the “Degree of fatty liver (histopathological examination)” value in data set [3] (50 mg/kg oral) was “± ± and ± ± ± + ±”. Further, the “Degree of fatty liver (histopathological examination)” value in data set [3] (250 mg/kg oral) was “- ± and - ± ± ±”. In addition, in data set [1], the “p-GPT (plasma glutamic-pyruvic transaminase activity)” value was determined as 105 Karmen units and the “Liver Damage Index” value was found to be 1.4.

In the data set “in vivo”, `CCOC(=O)C(C(=O)OC(C)C)=C1SCCS1` [Compound 21, Ethyl isopropyl 1,3-dithiolan-2-ylidene malonate] returned an LD50 of 2230 mg/kg. In data set [3] (setting [6]), the Total lipid is reported as 97.8 ± 10.3 mg/g-liver and the Triglyceride stood at 40.6 ± 6.8 mg/g-liver. Besides, in data set [3] (setting [5]), the Total lipid is 70.2 ± 8.3 mg/g-liver and the Triglyceride was determined as 24.8 ± 3.2 mg/g-liver. In data set [1], the “p-GPT (plasma glutamic-pyruvic transaminase activity)” value came out at 64 Karmen units and the “Liver Damage Index” value turned out to be 0.6. In data set [4], the Triglyceride in liver stood at 6.8 ± 1.2 mg/g and the p-GPT was 47±21 Karmen unit.

On to `CC(C)COC(=O)C(C(=O)OCC(C)C)=C1SCCS1` [Compound 6], for which the “Degree of fatty liver (histopathological examination)” value in data set [3] (50 mg/kg oral) is “± ± and ± ± + ±”; in data set [3] (250 mg/kg oral), “± - - - ± ±”. Also, the “p-GPT (plasma glutamic-pyruvic transaminase activity)” value in data set [1] was determined as 26 Karmen units. Also, in data set [1], the “Liver Damage Index” value was 0.5.
